Test results as given in patent US20110153302A1, “IDENTIFICATION OF DRUG EFFECTS ON SIGNALING PATHWAYS USING INTEGER LINEAR PROGRAMMING” (Massachusetts Institute of Technology, priority 2009, published 2011).
Entries after “also recorded” stand apart in the source; their conditions may differ.

Tests used:
HepG2 specific topology = assay: Drug-induced topology alterations: ILP fit of the HepG2 specific topology to drug-induced phosphoprotein data; conditions: for Drug effect on the JNK→c-JUN branch / Drug effect on downstream reactions of the TGFα branch (TGFα→GRB2→SOS→RAS→PI3K and RAS→RAF1→MEK1/2→ERK1/2): reactions removed from HepG2 topology by ILP, Gefitinib 3 uM; for Effect on c-Jun signaling: summary statement in the personalized medicine section
Excerpt: Here, we describe how the Boolean model described in [18] can be reformulated as an ILP. Note that such a transformation was recently performed for a different problem, namely the satisfiability, by. A pathway is defined as a set of reactions i=1, . . . , nr and species j=1, . . . , ns. Each reaction has three corresponding index sets, namely the index set of signaling molecules Ri, inhibitors Ii, and “products” Pi (“product” can also correspond to the phosphorylation level of the protein). These sets are all subsets of the species index set (Ri,Ii,Pi⊂{1, . . . , ns}). Typically, these subsets have very small cardinality (few species), e.g., |Ri|=0,1,2;|Ii|=0,1;|Pi|=1,2;|Ri|+|Ii|=1,2. A reaction takes place if and only if all reagents and no inhibitors are present. If a reaction takes place, all products are formed. Note that reactions without products as well as reactions with neither reagents nor inhibitors will be excluded here.
While typically the set of species is known, the set of reactions is not known. Rather, only a superset of potential reactions is postulated. The goal of the proposed formulation is to find an optimal (in some sense) set of reactions out of such a superset. To that extent binary variables yi are introduced, indicating if a reaction is possible or not (yi=0 connection not present, yi=1 connection present).
A set of experiments is performed, indexed by the superscript k=1, . . . , ne. In each experiment a subset of species is introduced to the system and another subset is excluded from the system. These are summarized by the index sets M^k,1 and M^k,0 respectively (two for each experiment). In the proposed formulation, constants are introduced for all such species, respectively xj^k=1 and xj^k=0. […] In the experiments a third subset of the species is measured (index set M^k,2) and for the remaining species no information is available. In the proposed formulation for each of the experiments and each such species a binary decision variable xj^kε{0,1} is introduced indicating if the species j is present (xj^k=1) or not (xj^k=0) in the experiment k according to the model predictions. […] This has some computational advantages.
In the present study, our ILP formulation was utilized in two different circumstances. For the creation of the cell-type specific pathway using combinations of inhibitors and stimuli our ILP formulation included 27887 constraints and 9732 variables. For each drug case, where the reduced and optimized pathway was utilized, we had 2477 constraints and 947 variables.
For the identification of the drug effects we make use of the second dataset in HepG2s where drugs are applied together with the same set of ligands. In this case, the ILP formulation is being used with the HepG2 specific topology (topology obtained from the previous step) and not the generic map.

JNK1/2 kinases = conditions: kinase profiles, ref [32]; cited from earlier work
HepG2 cells = assay: Bead-based multiplexed (Luminex xMAP) measurement of 13 key phosphorylation events in cells treated with drugs and ligands; assay type: cell-based
Description: HepG2 cells were purchased from ATCC (Manassas, Va.), and seeded on 96-well plates coated with collagen type I-coated (BD Biosciences, Franklin Lakes, N.J.) at 30,000 cells/well in DME medium containing 10% Fetal Bovine Serum (FBS). The following morning, cells were starved for 4 hours and treated with inhibitors and/or drugs. Kinase inhibitors were used at concentrations sufficient to inhibit at least 95% the phosphorylation of the nominal target as determined by dose-response assays (presented in [17]). […] was chosen as the nominal target for Lapatinib, Erlotinib, and Gefitinib. The following saturated concentrations were used: p38 (PHA818637, 20 nM), MEK (PD325901, 100 nM) and cMET (JNJ38877605, 1 μM), PI3K (PI-103, 10 μM), Lapatinib at 3 uM [47], Erlotinib at 1 uM [47], Gefitinib at 3 uM [47], and Sorafenib at 3 uM (based on its inhibitory activity on ERK1/2 phosphorylation). Following incubation for 45 minutes with inhibitors and/or drugs cells were treated with saturated levels of 5 ligands: Tumor Necrosis Factor alpha (TNFα) at 100 ng/ml, Interleukin 1 alpha (IL1α) at 10 ng/ml, Insulin (INS) at 2 uM, Transforming Growth Factor (TGFα) at 100 ng/ml, and Hepatocytes Growth Factor (HGF) at 100 ng/ml. Each ligand was added alone or in pairs and cell lysates were collected at 0, 5, and 25 minutes following the cytokine stimulation. The 5 and 25 minutes lysates were mixed together in 1:1 ratio and the mixed lysate was measured as an indicator of the “average early signaling response”. The 5 and 25 minute time points were identified in a preliminary experiment as the optimal time points that maximally captured early phosphorylation activities.
(§1) From each lysate we measured 13 phosphorylation activities that we considered “key phosphorylation events” using a Luminex 200 system (Luminex Corp, Austin, Tex.). The 13-plex phospho-protein bead set from Bio-Rad was used to assay p70S6K (Thr421/Ser424), CREB (Ser133), p38 (Thr180/Tyr182), MEK1 (Ser217/Ser221), JNK (Thr183/Tyr185), HSP27 (Ser78), ERK1/2 (Thr202/Tyr204, Thr185/Tyr187), c-JUN (Ser63), IRS-1 (Ser636/Ser639), IκB-α (Ser32/Ser36), Histone H3 (Ser10), Akt (Ser473), and IR-β (Tyr1146). Data were normalized and plotted using with DataRail. For the construction of the dose response curve in FIG. 3i, HepG2 were starved for 4 hours and then incubated with Gefitinib (from 20 uM down to 27 nM-3 fold dilution) for 45 minutes followed by incubation with IL1α at 10 ng/ml final concentration for 30 minutes. Duplicate lysates were analyzed using the c-JUN (Ser63) beads in the Luminex 200 system.
High-throughput bead-based ELISA-type experiments using xMAP technology (Luminex, Tex., USA) are performed as briefly described in the Materials and Methods section and in [17]. We create two datasets: one for the construction of cell-type specific topology and another for the identification of the mechanisms of drug actions. […] For the purpose of this paper, we refer to “inhibitors” as the compounds for which we know the target and we use them in a concentration capable to block ˜95% of the downstream protein. Conversely, we refer to “drugs” as the compounds for which we assume no a-priori knowledge of their target. For each combination of cytokine and drug/inhibitor we collect cell lysates at 5 and 25 minutes. The two time points are pooled together in 1:1 ratio and the mixed lysates are used as an indicator of the “average early signaling response”. For each treatment we measure 13 protein phosphorylations that we consider “key protein activities” (raw data in FIG. 4). The key phosphorylation signals (listed in Materials and Methods) are chosen based on the availability of the reagents and quality controls performed at the early phases of the experimental setup. […]

c-JUN (Ser63) = assay: Gefitinib dose response of c-JUN (Ser63) signal in HepG2 after IL1α (FIG. 3i); assay type: cell-based; conditions: Gefitinib 20 uM down to 27 nM, 45 min, IL1α 10 ng/ml, 30 min, linear fit
Excerpt: as §1

RAF/MEK/ERK pathway = conditions: human tumor cell lines, ref [33]; cited from earlier work
p38α = p38α (Homo sapiens, UniProt Q16539); conditions: refs [32],[45]; cited from earlier work
Sequence of p38α (Q16539 whole entry): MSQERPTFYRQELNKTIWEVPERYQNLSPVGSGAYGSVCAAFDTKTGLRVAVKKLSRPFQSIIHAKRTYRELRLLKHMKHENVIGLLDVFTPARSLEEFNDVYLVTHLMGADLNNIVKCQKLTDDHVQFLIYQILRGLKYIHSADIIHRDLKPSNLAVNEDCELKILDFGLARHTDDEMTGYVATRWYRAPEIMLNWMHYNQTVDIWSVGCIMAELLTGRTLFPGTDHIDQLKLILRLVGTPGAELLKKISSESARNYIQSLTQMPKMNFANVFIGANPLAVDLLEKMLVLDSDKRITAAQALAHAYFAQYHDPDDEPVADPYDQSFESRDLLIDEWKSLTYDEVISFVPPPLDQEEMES

| SMILES | Drug effect on the TRAF6→MAP3k7 reaction (HepG2 specific topology; HepG2 topology, ILP, Erlotinib 1 uM) | Drug effect on the JNK→c-JUN branch (HepG2 specific topology; Erlotinib 1 uM, Sorafenib 3 uM) | Drug effect on downstream reactions of the TGFα branch (TGFα→GRB2→SOS→RAS→PI3K and RAS→RAF1→MEK1/2→ERK1/2) (HepG2 specific topology; Lapatinib 3 uM, Erlotinib 1 uM) | Effect on c-Jun signaling (HepG2 specific topology) | Affinity for the directly upstream JNK1/2 kinases (JNK1/2 kinases) | IκB-α signals upon IL1α and TNFα stimuli (HepG2 cells; Erlotinib 1 uM, FIG. 4) | Activation of cJUN signal induced by the IL1α stimuli, dose response (c-JUN (Ser63)) | IL1α- and (IL1α+TGFα)-induced cJUN activity (HepG2 cells; Gefitinib 3 uM, IL1α 10 ng/ml, FIG. 3f) | Drug effect on the PI3K→...→AKT branch (HepG2 specific topology; HepG2 topology, ILP, Lapatinib 3 uM) | TGFα induced MEK1/2, ERK1/2, and AKT phosphosignals (HepG2 cells; Lapatinib 3 uM, 45 min before TGFα 100 ng/ml, early response (5 and 25 min), FIG. 3e) | Activation of AKT by the HGF and INS path (HepG2 cells; Lapatinib 3 uM, FIG. 3e) | Inhibition of activation of the RAF/MEK/ERK pathway (RAF/MEK/ERK pathway) | Drug effect on the p38 path (HepG2 specific topology; HepG2 topology, ILP, Sorafenib 3 uM) | Drug effect on the RAF→ERK1/2 reaction (HepG2 specific topology; HepG2 topology, network optimization, Sorafenib 3 uM) | HSP27 phosphorylation upon IL1α treatment (HepG2 cells; Sorafenib 3 uM, FIG. 3h) | MEK1 phosphorylation (HepG2 cells; Sorafenib 3 uM, FIG. 3h) | Target affinity to p38α (p38α) |
| --- | --- | --- | --- | --- | --- | --- | --- | --- | --- | --- | --- | --- | --- | --- | --- | --- | --- |
| C#Cc1cccc(Nc2ncnc3cc(OCCOC)c(OCCOC)cc23)c1 [Erlotinib] | shows an effect in the TRAF6→MAP3k7 reaction | has the same effects as Gefitinib; also recorded: removal of the JNK→cJUN reaction | has the same effects as Gefitinib | do not affect c-Jun signaling | no medium or high affinity | inhibited in an IL1α-dependent but TNFα-independent manner |  |  |  |  |  |  |  |  |  |  |  |
| COc1cc2ncnc(Nc3ccc(F)c(Cl)c3)c2cc1OCCCN1CCOCC1 [Gefitinib] |  | removal of the JNK→c-JUN branch; also recorded: removal of the JNK→cJUN reaction | alters the topology in a very similar pattern as Lapatinib | affects c-Jun signaling as well as EGFR signaling | no medium or high affinity |  | can reduce the activation of cJUN signal; also recorded: does not follow a typical dose-response curve; also recorded: reduces cJUN activation | potent inhibition; also recorded: significant reduction of the cJUN activity; also recorded: previously unknown inhibition of cJUN in the IL1α pathway; also recorded: inhibits signaling downstream the Interleukin-1alpha (IL1α) pathway |  |  |  |  |  |  |  |  |  |
| CS(=O)(=O)CCNCc1ccc(-c2ccc3ncnc(Nc4ccc(OCc5cccc(F)c5)c(Cl)c4)c3c2)o1 [Lapatinib] |  |  | complete removal of the downstream reactions of the TGFα branch | do not affect c-Jun signaling |  |  |  |  | not removed | blocks | cannot be blocked |  |  |  |  |  |  |
| CNC(=O)c1cc(Oc2ccc(NC(=O)Nc3ccc(Cl)c(C(F)(F)F)c3)cc2)ccn1 [Sorafenib] |  | blocks the JNK→c-JUN branch; also recorded: removal of the JNK→cJUN reaction |  |  | no medium or high affinity |  |  |  |  |  |  | does not inhibit activation of the RAF/MEK/ERK pathway in all human tumor cell lines | affects the p38 path; also recorded: inhibition of the pathway downstream of p38 | does not remove the RAF→ERK1/2 reaction | complete HSP27 inhibition | reduces but does not block | target affinity |
